# Measurements as given in US5288720A, “Angiotensin II receptor blocking 2,3,6 substituted quinazolinones” (American Cyanamid Company, priority 1993, dated 1994).
# Legend:
# [1] = test system: ANGIOTENSIN II VASOPRESSOR RESPONSE; assay: AII Challenge: blockade of angiotensin II vasopressor response in conscious SHR; type: in vivo, rat (Conscious Male Okamoto-Aoki SHR); conditions: SHR n=2
# Description: By administering a compound of this invention to a rat, and then challenging with angiotensin II, a blockage of the vasopressor response is realized.
# Conscious Male Okamoto-Aoki SHR, 16-20 weeks old, weighing approximately 330 g are purchased from Charles River Labs (Wilmington, Mass.). Conscious rats are restrained in a supine position with elastic tape. The area at the base of the tail is locally anesthetized by subcutaneous infiltration with 2% procaine. The ventral caudal artery and vein are isolated, and a cannula made of polyethylene (PE) 10-20 tubing (fused together by heat) is passed into the lower abdominal aorta and vena cava, respectively. The cannula is secured, heparinized (1,000 I.U./ml), sealed and the wound is closed. The animals are placed in plastic restraining cages in an upright position. The cannula is attached to a Statham P23Db pressure transducer, and pulsatile blood pressure is recorded to 10-15 minutes with a Gould Brush recorder. (Chan et al., (Drug Development Res., 18:75-94, 1989).
# Angiotensin II (human sequence, Sigma Chem. Co., St. Louis, MO) of 0.05 and 0.1 ug/kg i.v. is injected into all rats (predosing response). Then a test compound, vehicle or a known angiotensin II antagonist is administered i.v., i.p. or orally to each set of rats. The two doses of angiotensin II are given to each rat again at 30, 60, 90, 120, 180, 240 and 300 minutes post dosing the compound or vehicle. The vasopressor response of angiotensin II is measured for the increase in systolic blood pressure in mmHg. The percentage of antagonism or blockade of the vasopressor response of angiotensin II by a compound is calculated using the vasopressor response (increase in systolic blood pressure) of angiotensin II of each rat predosing the compound as 100%. A compound is considered active if at 30 mg/kg i.v. it antagonized at least 50% of the response.
# Angiotensin II Receptor = target: T1, Angiotensin II Receptor (Bos taurus, UniProt P25104); assay: Receptor Binding Assay: Binding of [^125 I](Sar^1,Ile^8)AngII to beef adrenal cortex membranes; conditions: 60 min, room temperature
# T1 construct: The brownish tissue forming the adrenal cortex is scraped off and finely minced with scissors before homogenization; from tissue; host or cells: beef adrenal cortex, microsomal membranes (100,000×g pellet); fresh glands from a local slaughter house (Maxwell-Cohen)
# T1 sequence (P25104 1-359): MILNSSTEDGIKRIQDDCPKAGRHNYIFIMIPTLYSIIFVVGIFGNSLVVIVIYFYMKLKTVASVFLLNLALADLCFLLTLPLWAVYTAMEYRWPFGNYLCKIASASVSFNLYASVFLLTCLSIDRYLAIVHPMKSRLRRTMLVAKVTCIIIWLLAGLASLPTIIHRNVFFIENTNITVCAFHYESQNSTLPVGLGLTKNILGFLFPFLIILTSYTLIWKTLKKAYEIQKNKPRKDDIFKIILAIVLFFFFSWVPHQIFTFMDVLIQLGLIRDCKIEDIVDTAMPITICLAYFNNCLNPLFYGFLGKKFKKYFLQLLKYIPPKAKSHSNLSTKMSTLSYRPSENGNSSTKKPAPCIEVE
# Description: Beef adrenals are obtained from a local slaughter house (Maxwell-Cohen). [^125 […]. 2200 Ci/mmole, is purchased from Dupont (NEN®, Boston, Mass.). All unlabeled AngII analogs, Dimethylsulfoxide (DMSO), nucleotides, bovine serum albumin (BSA) are purchased from Sigma Chemical Co., St. Louis, Mo. U.S.A. […] Approximately sixteen (16) to twenty (20) beef adrenal glands are processed as follows: fresh adrenal glands received on crushed ice are cleaned of fatty tissues and the tough membranes encapsulating the glands are removed and discarded. The brownish tissue forming the adrenal cortex is scraped off and finely minced with scissors before homogenization. Care is taken to avoid contamination with medullary tissue during dissection. The scraped cortices are suspended in twenty volumes of an ice-cold buffer medium consisting of 10 mM Tris.HCl (pH 7.4 at 22° C.) and containing 1.0 mM EDTA and 0.2M sucrose. Unless otherwise indicated, all subsequent operations are done at 4° C. […] The homogenate is centrifuged first at low speed (3,000×g) for 10 minutes. […] This P2 pellet is discarded and the liquid phase is carefully decanted off in clean centrifuge tubes and recentrifuged at high speed (100,000×g) for 60 minutes. The translucent final pellet is harvested and combined in a small volume (20-50.0 ml) of 50.0 mM Tris.HCl buffer, pH 7.2. A 100 ul aliquot is withdrawn and the protein content of the preparation is determined by the Lowry's method (Lowry, O. H., Rosebrough, […]. and Randall, R. J., Protein measurement with Folin phenol reagent. J. Biol. Chem., […], 265-275, 1951). The pelleted membrane is reconstituted in 50.0 mM Tris.HCl buffer containing 0.1 mM of phenylmethylsulfonyl fluoride (PMSF) to give approximately a protein concentration of 2.5 mg per ml of tissue suspension. […] Receptor Binding Assay: […] In competition studies, experimental compounds are diluted in dimethylsulfoxide (DMSO) and added in 20 ul to wells before the introduction of tissue membranes. […] Assays are performed in triplicate. The wells are left undisturbed for 60 minutes at room temperature. Following incubation, all wells are harvested at once with a Brandel® Harvester especially designed for a 96 well plate (Brandel® Biomedical Research & Development Labs. Inc., Gaithersburg, Md., U.S.A.). The filter discs are washed with 10×1.0 ml of cold 0.9% NaCl to remove unbound ligand. Presoaking the filter sheet in 0.1% polyethyleneimine in normal saline (PEI/Saline) greatly reduces the radioactivity retained by the filter blanks. This method is routinely used. The filters are removed from the filter grid and counted in a Parkard® Cobra Gamma Counter for 1 minutes. (Packard Instrument Co., Downers Grove, Ill, U.S.A.). The binding data are analyzed by the non-linear interactive "LUNDON-1" program (LUNDON SOFTWARE Inc., Cleveland, Ohio U.S.A.).
# [2] = 10 mg/kg i.v., AII 0.05 mcg/kg IV, 30 min post dose
# [3] = 10 mg/kg i.v., AII 0.05 mcg/kg IV, 60 min post dose
# [4] = 10 mg/kg i.v., AII 0.05 mcg/kg IV, 90 min post dose
# [5] = 10 mg/kg i.v., AII 0.05 mcg/kg IV, 120 min post dose
# [6] = 10 mg/kg i.v., AII 0.05 mcg/kg IV, 180 min post dose
# [7] = 10 mg/kg i.v., AII 0.05 mcg/kg IV, 240 min post dose
# [8] = 10 mg/kg i.v., AII 0.05 mcg/kg IV, 300 min post dose
# [9] = 10 mg/kg i.v., AII 0.1 mcg/kg IV, 30 min post dose
# [10] = 10 mg/kg i.v., AII 0.1 mcg/kg IV, 60 min post dose
# [11] = 10 mg/kg i.v., AII 0.1 mcg/kg IV, 90 min post dose
# [12] = 10 mg/kg i.v., AII 0.1 mcg/kg IV, 120 min post dose
# [13] = 10 mg/kg i.v., AII 0.1 mcg/kg IV, 180 min post dose
# [14] = 10 mg/kg i.v., AII 0.1 mcg/kg IV, 240 min post dose
# [15] = 10 mg/kg i.v., AII 0.1 mcg/kg IV, 300 min post dose
# [16] = 3 mg/kg i.v., AII 0.05 mcg/kg IV, 30 min post dose
# [17] = 3 mg/kg i.v., AII 0.05 mcg/kg IV, 60 min post dose
# [18] = 3 mg/kg i.v., AII 0.05 mcg/kg IV, 90 min post dose
# [19] = 3 mg/kg i.v., AII 0.05 mcg/kg IV, 120 min post dose
# [20] = 3 mg/kg i.v., AII 0.05 mcg/kg IV, 180 min post dose
# [21] = 3 mg/kg i.v., AII 0.05 mcg/kg IV, 240 min post dose
# [22] = 3 mg/kg i.v., AII 0.05 mcg/kg IV, 300 min post dose
# [23] = 3 mg/kg i.v., AII 0.1 mcg/kg IV, 30 min post dose
# [24] = 3 mg/kg i.v., AII 0.1 mcg/kg IV, 60 min post dose
# [25] = 3 mg/kg i.v., AII 0.1 mcg/kg IV, 90 min post dose
# [26] = 3 mg/kg i.v., AII 0.1 mcg/kg IV, 120 min post dose
# [27] = 3 mg/kg i.v., AII 0.1 mcg/kg IV, 180 min post dose
# [28] = 3 mg/kg i.v., AII 0.1 mcg/kg IV, 240 min post dose
# [29] = 3 mg/kg i.v., AII 0.1 mcg/kg IV, 300 min post dose
structure (smiles),measurement,setting,value
"CCCCc1nc2ccc(C(C)(O)C3CCCN(C)C3=O)cc2c(=O)n1Cc1ccc(-c2ccccc2-c2nn[nH]n2)cc1 (single isomer, unassigned; isomer 1) [Example 52, 2-Butyl-6-[1-hydroxy(1-methyl-2-oxo-3-piperidinyl)ethyl]-3-[[2'-(1H-tetrazol-5-yl)-[1,1'-biphenyl]-4-yl]methyl]-4(3H)-quinazolinone, isomer 1]",% Inhibition of AII vasopressor response,[1]; [2],71%
same,Average Change (systolic blood pressure response to AII),[1]; [2],12.5 mmHg
same,% Inhibition of AII vasopressor response,[1]; [3],94%
same,Average Change (systolic blood pressure response to AII),[1]; [3],2.5 mmHg
same,% Inhibition of AII vasopressor response,[1]; [4],76%
same,Average Change (systolic blood pressure response to AII),[1]; [4],10 mmHg
same,% Inhibition of AII vasopressor response,[1]; [5],59%
same,Average Change (systolic blood pressure response to AII),[1]; [5],17.5 mmHg
same,% Inhibition of AII vasopressor response,[1]; [6],47%
same,Average Change (systolic blood pressure response to AII),[1]; [6],22.5 mmHg
same,% Inhibition of AII vasopressor response,[1]; [7],29%
same,Average Change (systolic blood pressure response to AII),[1]; [7],30 mmHg
same,% Inhibition of AII vasopressor response,[1]; [8],47%
same,Average Change (systolic blood pressure response to AII),[1]; [8],22.5 mmHg
same,% Inhibition of AII vasopressor response,[1]; [9],85%
same,Average Change (systolic blood pressure response to AII),[1]; [9],7.5 mmHg
same,% Inhibition of AII vasopressor response,[1]; [10],90%
same,Average Change (systolic blood pressure response to AII),[1]; [10],5 mmHg
same,% Inhibition of AII vasopressor response,[1]; [11],70%
same,Average Change (systolic blood pressure response to AII),[1]; [11],15 mmHg
same,% Inhibition of AII vasopressor response,[1]; [12],80%
same,Average Change (systolic blood pressure response to AII),[1]; [12],10 mmHg
same,% Inhibition of AII vasopressor response,[1]; [13],55%
same,Average Change (systolic blood pressure response to AII),[1]; [13],22.5 mmHg
same,% Inhibition of AII vasopressor response,[1]; [14],45%
same,Average Change (systolic blood pressure response to AII),[1]; [14],27.5 mmHg
same,% Inhibition of AII vasopressor response,[1]; [15],45%
same,Average Change (systolic blood pressure response to AII),[1]; [15],27.5 mmHg
same,IC50,Angiotensin II Receptor,62 nM
"CCCCc1nc2ccc(C(C)(O)C3CCCN(C)C3=O)cc2c(=O)n1Cc1ccc(-c2ccccc2-c2nn[nH]n2)cc1 (single isomer, unassigned; isomer 2) [Example 53, 2-Butyl-6-[1-hydroxy(1-methyl-2-oxo-3-piperidinyl)ethyl]-3-[[2'-(1H-tetrazol-5-yl)[1,1'-biphenyl]-4-yl]methyl]-4(3H)-quinazolinone isomer 2]",% Inhibition of AII vasopressor response,[1]; [16],89%
same,Average Change (systolic blood pressure response to AII),[1]; [16],5 mmHg
same,% Inhibition of AII vasopressor response,[1]; [17],89%
same,Average Change (systolic blood pressure response to AII),[1]; [17],5 mmHg
same,% Inhibition of AII vasopressor response,[1]; [18],58%
same,Average Change (systolic blood pressure response to AII),[1]; [18],20 mmHg
same,% Inhibition of AII vasopressor response,[1]; [19],58%
same,Average Change (systolic blood pressure response to AII),[1]; [19],20 mmHg
same,% Inhibition of AII vasopressor response,[1]; [20],37%
same,Average Change (systolic blood pressure response to AII),[1]; [20],30 mmHg
same,% Inhibition of AII vasopressor response,[1]; [21],58%
same,Average Change (systolic blood pressure response to AII),[1]; [21],20 mmHg
same,% Inhibition of AII vasopressor response,[1]; [22],53%
same,Average Change (systolic blood pressure response to AII),[1]; [22],22.5 mmHg
same,% Inhibition of AII vasopressor response,[1]; [23],76%
same,Average Change (systolic blood pressure response to AII),[1]; [23],12.5 mmHg
same,% Inhibition of AII vasopressor response,[1]; [24],61%
same,Average Change (systolic blood pressure response to AII),[1]; [24],20 mmHg
same,% Inhibition of AII vasopressor response,[1]; [25],76%
same,Average Change (systolic blood pressure response to AII),[1]; [25],12.5 mmHg
same,% Inhibition of AII vasopressor response,[1]; [26],61%
same,Average Change (systolic blood pressure response to AII),[1]; [26],20 mmHg
same,% Inhibition of AII vasopressor response,[1]; [27],42%
same,Average Change (systolic blood pressure response to AII),[1]; [27],30 mmHg
same,% Inhibition of AII vasopressor response,[1]; [28],43%
same,Average Change (systolic blood pressure response to AII),[1]; [28],29.5 mmHg
same,% Inhibition of AII vasopressor response,[1]; [29],17%
same,Average Change (systolic blood pressure response to AII),[1]; [29],42.5 mmHg
same,IC50,Angiotensin II Receptor,54 nM
